According to ChEMBL document CHEMBL1123332, “Synthesis and anti-herpes-virus activity of acyclic 2'-deoxyguanosine analogues related to 9-[(1,3-dihydroxy-2-propoxy)methyl]guanine” (1986):

Legend:
[1] = Antiviral activity determined against herpes simplex type 1 (F strain) by plaque reduction in Vero cells; assay type: functional; conditions: Chlorocebus sabaeus, read-out: ID50 (the source's name)
[2] = test system: Thymidine kinase (Human alphaherpesvirus 1); assay: Phosphorylation of compound by purified HSV-1 (F strain) thymidine kinase; parameters: concentration or dose not given beside the values
Mus musculus [3] = assay: Mean survival time of HSV-2 encephalitis infectuous mice upon subcutaneous treatment with the compound at a dose of 20 mg/kg; assay type: functional
Mus musculus [4] = assay: Effect of subcutaneous treatment with the compound on HSV-2 encephalitis infection in mice at a dose of 20 mg/kg; 2/10; assay type: functional
Mus musculus [5] = assay: Effect of subcutaneous treatment with the compound on HSV-2 encephalitis infection in mice at a dose of 20 mg/kg; 3/10; assay type: functional
Mus musculus [6] = assay: Effect of subcutaneous treatment with the compound on HSV-2 encephalitis infection in mice at a dose of 20 mg/kg; 10/16; assay type: functional

Row | Compound | IC50 [1] | Activity [2] | MST (Mus musculus [3]) | Survivors (Mus musculus [4]) | Survivors (Mus musculus [5]) | Survivors (Mus musculus [6])
1 | Nc1nc(O)c2ncn(CO[C@H](CO)CF)c2n1 | > 7 µM | 67% | 8.5 days | 2 | – | –
2 | Nc1nc2c(ncn2CC(CO)CO)c(=O)[nH]1 [TIVICICLOVIR] | > 100 µM | – | – | – | – | –
3 | Nc1nc(O)c2ncn(COCCOC(CO)CO)c2n1 | > 7 µM | 23% | 10.3 days | – | 3 | –
4 | NC[C@@H](CO)OCn1cnc2c(O)nc(N)nc21 | 32 µM | < 10% | – | – | – | –
5 | Nc1nc2c(ncn2COC(CO)CO)c(=O)[nH]1 [GANCICLOVIR] | 0.2 µM | – | 13.5 days | – | – | 10
6 | Nc1nc(O)c2ncn(CO[C@H](CO)CCl)c2n1 | 60 µM | 33% | – | – | – | –
7 | Nc1nc(O)c2ncn(CCOC(CO)CO)c2n1 | > 100 µM | 35% | – | – | – | –
8 | Nc1nc2c(ncn2COCCO)c(=O)[nH]1 [ACYCLOVIR] | 0.5 µM | – | – | – | – | –

More lines, main results first:

Row | IC50 [1] | Activity [2] | Compound | MST (Mus musculus [3]) | Survivors (Mus musculus [4]) | Survivors (Mus musculus [5]) | Survivors (Mus musculus [6])
9 | 40 µM | 21% | Nc1nc(O)c2ncn(CO[C@H](CO)COC3CCCC3)c2n1 | – | – | – | –
10 | > 100 µM | 100% | CC(CO)(CO)COCn1cnc2c(O)nc(N)nc21 | – | – | – | –
11 | 70 µM | 32% | COC[C@@H](CO)OCn1cnc2c(O)nc(N)nc21 | – | – | – | –
12 | 95 µM | 111% | Nc1nc(O)c2ncn(CO[C@H](CO)CCO)c2n1 | – | – | – | –
13 | 2.3 µM | 28% | C[C@@H](CO)OCn1cnc2c(O)nc(N)nc21 | – | – | – | –
14 | > 100 µM | 25% | [N-]=[N+]=NC[C@@H](CO)OCn1cnc2c(O)nc(N)nc21 | – | – | – | –
